Results: patent US20020155172A1, “Methods and compounds for decreasing cell toxicity or death” (priority 2000, published 2002)

What was measured:
[1] = system: HeLa cells transfected with the Q79-GFP plasmid; test: Cell death by receptor-mediated pathways (TNF-α or anti-FasR with cycloheximide); type: cell-based; conditions: Congo red 100 μM, 72 hours
Method: FIG. 4B is a graph showing the effect of Congo red (CR) on the induction of cell death by receptor-mediated pathways. HeLa cells transfected with a Q79-GFP plasmid were treated with TNF-a or anti-FasR and cycloheximide (CHX), in the presence or absence of CR (100 μM). The amount of cell death was measured 72 hours after transfection.
The effect of Congo red on the induction of cell death by receptor-mediated pathways was also evaluated. Once again, HeLa cells were transfected with the Q79-GFP plasmid, and six hours later were administered Tumor Necrosis Factor-alpha (TNF-α) or anti-FasR in the presence of cycloheximide (CHX). The samples were then incubated with or without Congo red (100 μM). The amount of cell death was measured 72 hours after exposure to the compounds (FIG. 4B).

[2] = system: HeLa cells co-transfected with a luciferase construct together with Q79-GFP; test: Protein synthesis by luciferase activity in Q79 expressing HeLa cells; type: cell-based; conditions: 48 hours after transfection
[3] = system: HeLa cells expressing Q79 expanded polyglutamine repeats; test: Cell death induced by TNF-α/CHX, Fas/CHX or H2O2; type: cell-based; conditions: 100 μM, one hour before the inducing agent; cell death 48 hours later
Method: FIG. 5F is a graph of the effects of Congo red, ZVAD, or vehicle (NT) on cell death when the cells are induced to die by receptor mediated pathways (TNF-α/cycloheximide (CHX), Fas/cycloheximide (CHX)), or necrosis (hydrogen peroxide).
HeLa cells expressing Q79 expanded polyglutamine repeats were treated with 100 μM Congo red, or 100 μM ZVAD (a positive control) for one hour prior to the addition of the apoptosis-inducing agent, and cell death was determined 48 hours later. […] Finally we tested whether Congo red can inhibit apoptosis induced by overexpression of caspase-1, -8, or -11.

R62 transgenic mice = test: Rotorod, muscle strength, first study; type: in vivo; conditions: R62Tg mice; 10 rpm, maximum 60 seconds; versus R62Tg without Congo red
Method: FIG. 9 is a graph showing the effect of intraperitoneal injection of Congo red on the motor performance in the mouse model of Huntington's disease (R62). Wild type mice or R62 transgenic mice carrying a polyglutamine repeat (R62Tg) were injected with either 0.5 ml of 1 mg/ml Congo red in phosphate buffered saline (PBS) or PBS alone and tested for their muscle strength by measuring their ability to remain on the rotorod at 10 rpm for a maximum period of 60 seconds.
Transgenic R62 mice that express the human Huntington's disease gene (carrying a 139-157 CAG repeat; Mangiarini et al., Cell 87:493-506, 1996; Carter et al., J. Neurosci. 19:3248-3257, 1999; and Levine et al., J. Neurosci. Res. 58:515-532, 1999) were used to examine the effects of Congo red on cell death or toxicity. […]
The latter procedure involved administration of 0.25 μl of the drug (1 mg/ml in 0.4% DMSO) per hour, for a period of at least 28 days. […] Polyglutamine inclusions were readily detected at the beginning of treatment. The effect of Congo red on the polyglutamine-induced toxicity in muscle strength in the animal model R62 was quantified by the use of a rotorod.
The mice were trained every day for a week after which time the latency to fall from a rotorod at a speed of 10 rpm was measured for each mouse, with a maximum time of 60 seconds per trial, as described by Carter et al., (J. Neurosci. 19:3248-3257, 1999). […]

R62 mice = test: Rotarod motor performance, second study; type: in vivo; conditions: 10 rpm, maximum 210 seconds
Text: FIG. 10F is a graph of the effect of PBS (vehicle; delivered intraperitoneally (IP)) or Congo red, infused intraperitoneally (IP), by intracerebroventricular cannula (ICV) implanted into the predetermined coordinates on the left ventricle, or by both routes, on motor performance, as assessed by latency to fall measurements using a rotorod.
In addition, the ability of Congo red to inhibit the formation as well as to disrupt preformed polyglutamine oligomers allowed us to examine the role of polyglutamine aggregates in neuronal dysfunction and degeneration characteristic of polyglutamine expansion diseases. In these studies, we used the animal model of Huntington's disease (R62), which expresses the truncated form of huntingtin with 139 CAG repeats Mangiarini et al. (supra). We took advantage of our finding that in addition to inhibiting polyglutamine oligomerization, Congo red also disrupts pre-formed oligomers, thus allowing assessment of the impact of Congo red on disease progression after formation of polyglutamine aggregates and the onset of symptoms. […]
The initial abnormal neurological signs of R62 mice include dyskinesia of the hindlimbs when mice were suspended by the tail, and irregular gait. […] The effect of Congo red on motor performance in R62 mice was also assessed by rotarod studies. […]

**Q.** For `Nc1c(/N=N/c2ccc(-c3ccc(/N=N/c4cc(S(=O)(=O)O)c5ccccc5c4N)cc3)cc2)cc(S(=O)(=O)O)c2ccccc12` [Congo red, diphenyldiazo-bis-alpha-napthylaminesulfonate], which “induction of cell death by receptor-mediated pathways” value [1] is on record?
**A.** does not alter the induction of cell death by receptor-mediated pathways

**Q.** And the “loss of luciferase activity (protein synthesis)” value [2]?
**A.** prevented the loss of luciferase activity

**Q.** And the “cell death induced by TNF-α/CHX, Fas/CHX, or H2O2” value [3]?
**A.** No effect

**Q.** And the “ability to remain on the rotorod” value (R62 transgenic mice)?
**A.** exhibited a better ability to remain on the rotorod

**Q.** What about the “motor performance on rotarod” value (R62 mice) of the same molecule?
**A.** preserved
